Results reported in paper PMC2741015 (Molecular and biochemical parasitology, 2009).

How the values were obtained:
[1] = molecular target: T1, P. falciparum SHMT (PfSHMT) (Plasmodium falciparum, UniProt Q8I566); test: PfSHMT activity inhibition by antifolates; type: biochemical
T1 sequence (Q8I566 1-442): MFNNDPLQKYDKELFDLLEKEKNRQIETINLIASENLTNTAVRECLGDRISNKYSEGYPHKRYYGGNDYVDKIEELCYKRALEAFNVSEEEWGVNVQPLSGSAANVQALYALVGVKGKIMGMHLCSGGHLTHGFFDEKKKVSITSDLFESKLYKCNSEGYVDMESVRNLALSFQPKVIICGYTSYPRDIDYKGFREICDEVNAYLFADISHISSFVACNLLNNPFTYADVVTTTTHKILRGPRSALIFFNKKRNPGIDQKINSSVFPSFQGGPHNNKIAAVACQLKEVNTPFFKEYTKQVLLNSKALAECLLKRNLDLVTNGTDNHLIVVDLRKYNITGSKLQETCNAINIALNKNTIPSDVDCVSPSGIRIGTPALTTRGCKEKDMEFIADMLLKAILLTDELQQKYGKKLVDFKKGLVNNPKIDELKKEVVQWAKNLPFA

[2] = molecular target: P. falciparum SHMT apo enzyme (Plasmodium falciparum, UniProt Q8I566); test: Activity of apo PfSHMT with and without PLP; type: biochemical; details: apo enzyme with vs without PLP (Fig 4A)
[3] = molecular target: PfSHMT protein interaction with SHMT or DHFR-TS mRNA (Plasmodium falciparum, UniProt Q8I566); test: RNA-protein interaction gel shift, competition with substrates; type: binding; details: 500 nM SHMT protein, 0.5 nM labeled RNA; 125 μM PLP, 3 mM serine, 3 mM THF
[4] = molecular target: T1, P. falciparum SHMT (PfSHMT); test: Michaelis-Menten constants of PfSHMT substrates; type: biochemical
SEC = molecular target: the molecule itself; test: SEC

Molecule: Cc1nc2ccc(CN(C)c3ccc(C(=O)N[C@@H](CCC(=O)O)C(=O)O)s3)cc2c(=O)[nH]1 [D1694]
- IC50 [1]: > 500 µM

Molecule: Cc1ncc(COP(=O)(O)O)c(C=O)c1O [PLP, pyridoxal 5’-phosphate]
- Enzyme activity of apo enzyme with PLP added to the reaction [2]: increased by more than ten fold
- Effect on PfSHMT protein interaction with SHMT or DHFR-TS mRNA [3]: not abrogated

Molecule: CN(Cc1cnc2nc(N)nc(N)c2n1)c1ccc(C(=O)N[C@@H](CCC(=O)O)C(=O)O)cc1 [methotrexate]
- IC50 [1]: > 500 µM

Molecule: Nc1nc2[nH]cc(CCc3ccc(C(=O)N[C@@H](CCC(=O)O)C(=O)O)cc3)c2c(=O)[nH]1 [pemetrexed]
- IC50 [1]: > 500 µM

Molecule: CCc1nc(N)nc(N)c1-c1ccc(Cl)cc1 [pyrimethamine]
- IC50 [1]: > 500 µM

Molecule: N[C@@H](CO)C(=O)O [serine]
- Effect on PfSHMT protein interaction with SHMT or DHFR-TS mRNA [3]: not abrogated

Molecule: tetrahydrofolate [THF]
- Vmax ([4]; from velocity vs. substrate fit): 188.5 pmol/min
- Km ([4]; read-out: Km, P falciparum, Table 1, P. falciparum SHMT): 3.4 mM

B1: Plasmodium falciparum serine hydroxymethyltransferase with an N-terminal histidine tag (enzyme, Plasmodium falciparum (strain 3D7), UniProt Q8I566 1-442, looked up)
chain: T1 sequence (Q8I566 1-442)
- stoichiometry N (SEC): 2
